Source: US7282469B2, “4-trifluoromethylpyrazolyl-substituted pyridines and pyrimidines” (Bayer CropScience GmbH, priority 2002, dated 2007)

How the values were obtained:
Digitaria sanguinalis = test: Weed plant herbicidal activity, pre-emergence; assay type: in vivo; conditions: 320 g of active substance per hectare, visual scoring after 3 to 4 weeks
From the text: (§1) 1. Weed Plant Herbicidal Activity and Crop Plant Tolerance, Pre-emergence
(§2) Seeds of monocotyledonous and dicotyledonous weed plants and also of crop plants are placed in sandy loam soil in cardboard pots and are covered with soil. The compounds of the invention, formulated as wettable powders or emulsifiable concentrates, are then applied as an aqueous suspension or emulsion, respectively, and at different dosages to the surface of the covering soil at an application rate of 600 to 800 l of water per ha (converted). Following treatment, the pots are placed in a greenhouse and kept under good growth conditions for the weeds. Visual scoring of the plant damage or emergence damage is made after the test plants have emerged, after an experimental period of 3 to 4 weeks, in comparison with untreated controls. In this case, for example, the compounds of the invention from examples nos. 1.7 and 4.1 at a dosage of 320 g of active substance per hectare display a 100% activity against Digitaria sanguinalis, Setaria viridis and Amaranthus retroflexus. At the same dosage these compounds of the invention cause no damage to the crop plants Oryza sativa (rice) and Glycine max (soybean). The compound of the invention from example no. […] At the same dosage this compound of the invention causes no damage to the crop plants Oryza sativa (rice), Zea mays (maize) and Glycine max (soybean). At a dosage of 320 g of active substance per hectare, the compound of the invention from example no.

Setaria viridis = test: Weed plant herbicidal activity, pre-emergence; assay type: in vivo; conditions: visual scoring after 3 to 4 weeks
From the text: as §1, §2

Amaranthus retroflexus = test: Weed plant herbicidal activity, pre-emergence; assay type: in vivo; conditions: visual scoring after 3 to 4 weeks
From the text: as §1, §2

Alopecurus myosuroides = test: Weed plant herbicidal activity, pre-emergence; assay type: in vivo; conditions: 20 g of active substance per hectare, visual scoring after 3 to 4 weeks
From the text: as §1, §2

Veronica persica = test: Weed plant herbicidal activity, pre-emergence; assay type: in vivo; conditions: 20 g of active substance per hectare, visual scoring after 3 to 4 weeks
From the text: as §1, §2

Glycine max (soybean) = test: Crop plant tolerance, pre-emergence; assay type: in vivo
From the text: as §1, §2

Zea mays (maize) = test: Crop plant tolerance, pre-emergence; assay type: in vivo; conditions: 20 g of active substance per hectare
From the text: as §1, §2

Oryza sativa (rice) = test: Crop plant tolerance, pre-emergence; assay type: in vivo
From the text: as §1, §2

[1] = 20 g of active substance per hectare
[2] = 320 g of active substance per hectare

## Cc1cnc(-n2cc(C(F)(F)F)cn2)nc1Oc1cccc(C(F)(F)F)c1 [Example 1.7, 5-methyl-4-(3-trifluoromethylphenoxy)-2-(4-trifluoromethyl-1H-1-pyrazolyl)pyrimidine]
Digitaria sanguinalis
  activity against Digitaria sanguinalis: 100%
Setaria viridis; [1]
  activity against Setaria viridis: at least 90%
Setaria viridis; [2]
  activity against Setaria viridis: 100%
Amaranthus retroflexus; [1]
  activity against Amaranthus retroflexus: at least 90%
Amaranthus retroflexus; [2]
  activity against Amaranthus retroflexus: 100%
Alopecurus myosuroides
  activity against Alopecurus myosuroides: at least 90%
Veronica persica
  activity against Veronica persica: at least 90%
Glycine max (soybean); [1]
  damage to the crop plant Glycine max (soybean): no damage
Glycine max (soybean); [2]
  damage to the crop plant Glycine max (soybean): no damage
Zea mays (maize)
  damage to the crop plant Zea mays (maize): no damage
Oryza sativa (rice); [1]
  damage to the crop plant Oryza sativa (rice): no damage
Oryza sativa (rice); [2]
  damage to the crop plant Oryza sativa (rice): no damage
other
  melting point: 103 to 105 °C
